Assay results taken from patent US20100056508A1, “AMINE DERIVATIVES AND THEIR USE IN BETA-2-ADRENORECEPTOR MEDIATED DISEASES” (ASTRAZENECA AB, priority 2006, published 2010).
Structures can show the parent of a compound that is named as a salt. Blank lines part the entries; values can stand above or below the compound they belong to.

Legend:
[1] = molecular target: T1, recombinant human adrenergic beta 1 receptors (Homo sapiens, UniProt P08588); assay: Adrenergic β1 selectivity assay, [125I]-Iodocyanopindolol binding to membranes; conditions: inhibition of [125I]-Iodocyanopindolol binding, read-out: β1 bind pIC50 (converted)
T1 construct: purchased Euroscreen
T1 sequence (P08588 whole entry): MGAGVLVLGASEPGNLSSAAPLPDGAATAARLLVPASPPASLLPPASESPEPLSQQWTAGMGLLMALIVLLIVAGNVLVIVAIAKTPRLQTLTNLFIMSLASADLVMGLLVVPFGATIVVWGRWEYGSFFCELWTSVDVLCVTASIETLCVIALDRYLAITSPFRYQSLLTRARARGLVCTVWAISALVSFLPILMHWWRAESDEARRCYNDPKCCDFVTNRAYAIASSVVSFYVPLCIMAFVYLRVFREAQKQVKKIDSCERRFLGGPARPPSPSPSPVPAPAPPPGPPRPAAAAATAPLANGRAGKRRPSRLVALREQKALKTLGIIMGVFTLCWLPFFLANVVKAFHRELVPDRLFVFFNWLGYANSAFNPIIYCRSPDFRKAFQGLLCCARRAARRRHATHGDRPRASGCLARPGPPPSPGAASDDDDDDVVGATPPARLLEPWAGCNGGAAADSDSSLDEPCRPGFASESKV
Description: (§1) Membranes containing recombinant human adrenergic beta 1 receptors were obtained from Euroscreen. These were diluted in Assay Buffer (50 mM HEPES, 1 mM EDTA, 120 mM NaCl, 0.1% gelatin, pH 7.4) to provide a final concentration of membranes that gave a clear window between maximum and minimum specific binding.
(§2) Assays were performed in U-bottomed 96-well polypropylene plates. 10 μL [^125I]-Iodocyanopindolol (0.036 nM final concentration) and 10 μL of test compound (10× final concentration) were added to each test well. For each assay plate 8 replicates were obtained for [^125I]-Iodocyanopindolol binding in the presence of 10 μL vehicle (10% (v/v) DMSO in Assay Buffer; defining maximum binding) or 10 μL Propranolol (10 μM final concentration; defining non-specific binding (NSB)). Membranes were then added to achieve a final volume of 100 μL. The plates were incubated for 2 hours at room temperature and then filtered onto PEI coated GF/B filter plates, pre-soaked for 1 hour in Assay Buffer, using a 96-well plate Tomtec cell harvester. Five washes with 250 μL wash buffer (50 mM HEPES, 1 mM EDTA, 120 mM NaCl, pH 7.4) were performed at 4° C. to remove unbound radioactivity. The plates were dried then sealed from underneath using Packard plate sealers and MicroScint-O (50 μL) was added to each well. The plates were sealed (TopSeal A) and filter-bound radioactivity was measured with a scintillation counter (TopCount, Packard BioScience) using a 3-minute counting protocol.
(§3) Total specific binding (B0) was determined by subtracting the mean NSB from the mean maximum binding. NSB values were also subtracted from values from all other wells. […] Data was fitted to a four parameter logistic equation to determine the compound potency, which was expressed as pIC50 (negative log molar concentration inducing 50% inhibition of [^125I]-Iodocyanopindolol binding).

Adrenergic β2 = molecular target: T2, Adrenergic β2 (Homo sapiens, UniProt P07550); assay: Adrenergic β2 mediated cAMP production in H292 cells (AlphaScreen cAMP detection); format: cell-based; set-up: key to β2 Int Act: fraction of formoterol maximum activity (formoterol = 1); conditions: for β2 Int Act: Intrinsic Activity as a fraction relative to the maximum activity determined for formoterol; for EC50: cAMP production, 60 minutes at room temperature, 300 μM rolipram, read-out: β2 pEC50 (converted)
T2 construct: Adherent H292 cells were removed from tissue culture flasks; endogenous in cells; host or cells: H292 cells
T2 sequence (P07550 whole entry): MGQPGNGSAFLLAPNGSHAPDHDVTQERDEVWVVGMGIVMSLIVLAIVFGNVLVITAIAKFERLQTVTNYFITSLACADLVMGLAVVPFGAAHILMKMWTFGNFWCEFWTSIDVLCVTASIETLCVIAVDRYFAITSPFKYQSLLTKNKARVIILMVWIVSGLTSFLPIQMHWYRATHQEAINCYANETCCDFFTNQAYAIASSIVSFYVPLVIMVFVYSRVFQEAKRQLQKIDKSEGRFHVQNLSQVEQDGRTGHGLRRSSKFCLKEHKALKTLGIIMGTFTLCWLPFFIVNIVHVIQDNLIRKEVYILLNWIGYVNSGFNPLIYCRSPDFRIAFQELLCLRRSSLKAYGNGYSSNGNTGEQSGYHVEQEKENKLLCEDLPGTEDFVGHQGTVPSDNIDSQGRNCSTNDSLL
Description: Adrenergic β2 Mediated cAMP Production
H292 cells were grown in 225 cm2 flasks incubator at 37° C., 5% CO2 in RPMI medium containing, 10% (v/v) FBS (foetal bovine serum) and 2 mM L-glutamine.
Adherent H292 cells were removed from tissue culture flasks by treatment with Accutase™ cell detachment solution for 15 minutes. Flasks were incubated for 15 minutes in a humidified incubator at 37° C., 5% CO2. Detached cells were re-suspended in RPMI media (containing 10% (v/v) FBS and 2 mM L-glutamine) at 1×10^6 cells per mL. 10000 cells in 100 μL were added to each well of a tissue-culture-treated 96-well plate and the cells incubated overnight in a humidified incubator at 37° C., 5% CO2. The culture media was removed and cells were washed twice with 100 μL assay buffer and replaced with 50 μL assay buffer (HBSS solution containing 10 mM HEPES pH7.4 and 5 mM glucose). Cells were rested at room temperature for 20 minutes after which time 25 μL of rolipram (1.2 mM made up in assay buffer containing 2.4% (v/v) dimethylsulphoxide) was added. Cells were incubated with rolipram for 10 minutes after which time test compounds were added and the cells were incubated for 60 minutes at room temperature. The final rolipram concentration in the assay was 300 μM and final vehicle concentration was 1.6% (v/v) dimethylsulphoxide. The reaction was stopped by removing supernatants, washing once with 100 μL assay buffer and replacing with 50 μL lysis buffer. The cell monolayer was frozen at −80° C. for 30 minutes (or overnight).
AlphaScreen™ cAMP Detection
The concentration of cAMP (cyclic adenosine monophosphate) in the cell lysate was determined using AlphaScreen™ methodology. The frozen cell plate was thawed for 20 minutes on a plate shaker then 10 μL of the cell lysate was transferred to a 96-well white plate. 40 μL of mixed AlphaScreen™ detection beads pre-incubated with biotinylated cAMP, was added to each well and the plate incubated at room temperature for 10 hours in the dark. The AlphaScreen™ signal was measured using an EnVision spectrophotometer (Perkin-Elmer Inc.) with the recommended manufacturer's settings. cAMP concentrations were determined by reference to a calibration curve determined in the same experiment using standard cAMP concentrations. Concentration response curves for agonists were constructed and data was fitted to a four parameter logistic equation to determine both the pEC50 and Intrinsic Activity. Intrinsic Activity was expressed as a fraction relative to the maximum activity determined for formoterol in each experiment.

[2] = molecular target: T3, recombinant human α1D receptor (Homo sapiens, UniProt P25100); assay: Adrenergic α1D selectivity assay, [3H]-prazosin binding to membranes; conditions: inhibition of [3H]-prazosin binding, HEK cell membranes, read-out: α1 bind pIC50 (converted)
T3 construct: expressed in transfected cells; host or cells: human embryonic kidney 293 cells (HEK93 [sic]), membranes
T3 sequence (P25100 1-572): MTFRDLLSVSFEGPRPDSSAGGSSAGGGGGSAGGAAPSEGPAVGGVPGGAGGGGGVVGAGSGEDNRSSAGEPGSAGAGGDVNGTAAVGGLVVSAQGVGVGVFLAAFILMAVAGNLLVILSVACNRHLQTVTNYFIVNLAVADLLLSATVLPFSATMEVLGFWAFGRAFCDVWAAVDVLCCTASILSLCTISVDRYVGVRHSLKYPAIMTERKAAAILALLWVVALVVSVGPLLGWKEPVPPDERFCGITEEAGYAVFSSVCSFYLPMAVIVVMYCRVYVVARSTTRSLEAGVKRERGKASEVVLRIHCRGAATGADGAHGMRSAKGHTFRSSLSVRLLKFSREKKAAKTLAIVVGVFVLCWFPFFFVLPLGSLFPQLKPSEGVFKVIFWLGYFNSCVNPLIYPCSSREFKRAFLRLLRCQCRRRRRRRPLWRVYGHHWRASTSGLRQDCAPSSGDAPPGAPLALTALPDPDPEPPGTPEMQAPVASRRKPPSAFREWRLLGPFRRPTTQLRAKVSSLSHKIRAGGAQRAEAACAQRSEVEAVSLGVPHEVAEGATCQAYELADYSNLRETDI
Description: Membranes were prepared from human embryonic kidney 293 ([…]) cells expressing recombinant human α1D receptor. These were diluted in Assay Buffer (50 mM HEPES, 1 mM EDTA, pH 7.4) to provide a final concentration of membranes that gave a clear window between maximum and minimum specific binding.
as §2, with “10 μL [^3H]-prazosin (0.3 nM final” for “10 μL [^125I]-Iodocyanopindolol (0.036 nM final”, “and […] of test” for “and 10 μL of test”, “obtained for [^3H]-prazosin binding in” for “obtained for [^125I]-Iodocyanopindolol binding in”, “10 μL BMY7378 (10 μM” for “10 μL Propranolol (10 μM”, “mM EDTA, pH 7.4)” for “mM EDTA, 120 mM NaCl, pH 7.4)”
as §3, with “[^3H]-prazosin” for “[^125I]-Iodocyanopindolol”

[3] = molecular target: T4, recombinant human Dopamine Subtype D2s receptors (Homo sapiens, UniProt P14416); assay: Dopamine D2 selectivity assay, [3H]-spiperone binding to membranes; conditions: inhibition of [3H]-spiperone binding, read-out: D2 bind pIC50 (converted)
T4 construct: purchased Perkin Elmer
T4 sequence (P14416 1-414 isoform P14416-2): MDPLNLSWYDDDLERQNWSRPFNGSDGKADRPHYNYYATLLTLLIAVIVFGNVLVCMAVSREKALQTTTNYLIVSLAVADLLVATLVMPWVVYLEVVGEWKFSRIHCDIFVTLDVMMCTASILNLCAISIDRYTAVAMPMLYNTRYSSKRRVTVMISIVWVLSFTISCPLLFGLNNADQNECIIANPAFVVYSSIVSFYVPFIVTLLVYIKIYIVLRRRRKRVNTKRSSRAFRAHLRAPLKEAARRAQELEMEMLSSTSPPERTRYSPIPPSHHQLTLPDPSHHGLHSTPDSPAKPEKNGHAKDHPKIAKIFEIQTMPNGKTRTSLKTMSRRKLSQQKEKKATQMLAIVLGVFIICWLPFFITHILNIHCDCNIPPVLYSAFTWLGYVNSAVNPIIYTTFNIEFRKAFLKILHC
Description: as §1, with “Dopamine Subtype D2s” for “adrenergic beta 1”, “Perkin Elmer.” for “Euroscreen.”
Assays were performed in U-bottomed 96-well polypropylene plates. 30 μL [^3H]-spiperone (0.16 nM final concentration) and 30 μL of test compound (10× final concentration) were added to each test well. For each assay plate 8 replicates were obtained for [^3H]-spiperone binding in the presence of 30 μL vehicle (10% (v/v) DMSO in Assay Buffer; defining maximum binding) or 30 μL Haloperidol (10 μM final concentration; defining non-specific binding (NSB)). Membranes were then added to achieve a final volume of 300 μL. The plates were incubated for 2 hours at room temperature and then filtered onto PEI coated GF/B filter plates, pre-soaked for 1 hour in Assay Buffer, using a 96-well plate Tomtec cell harvester. Five washes with 250 μL wash buffer (50 mM HEPES, 1 mM EDTA, 120 mM NaCl, pH 7.4) were performed at 4° C. to remove unbound radioactivity. The plates were dried then sealed from underneath using Packard plate sealers and MicroScint-0 (50 μL) was added to each well. The plates were sealed (TopSeal A) and filter-bound radioactivity was measured with a scintillation counter (TopCount, Packard BioScience) using a 3-minute counting protocol.
as §3, with “[^3H]-spiperone” for “[^125I]-Iodocyanopindolol”

Compound: O=C1Cc2c(CCNCCN(C(=O)CCNCCc3cccc(F)c3)C3CCCCC3)ccc(O)c2N1 [Example 20, N-Cyclohexyl-3-(3-fluorophenethylamino)-N-(2-(2-(7-hydroxy-2-oxoindolin-4-yl)ethylamino)ethyl)propanamide dihydrobromide]
- β2 Int Act (Adrenergic β2): 0.78
- EC50 (Adrenergic β2): 7.94 nM
- IC50 [3]: 398 nM
- IC50 [2]: 158 nM

Compound: Cc1ccc(F)c(CCNCCC(=O)N(CCNCCc2ccc(O)c3c2OCC(=O)N3)C2CCCCC2)c1 [Example 33, N-Cyclohexyl-3-(2-fluoro-5-methylphenethylamino)-N-(2-(2-(5-hydroxy-3-oxo-3,4-dihydro-2H-benzo[b][1,4]oxazin-8-yl)ethylamino)ethyl)propanamide bis(trifluoroacetate)]
- IC50 [1]: 2510 nM
- β2 Int Act (Adrenergic β2): 0.9
- EC50 (Adrenergic β2): 1.58 nM
- IC50 [2]: 79.4 nM

Compound: O=C(CCNCCc1cc(F)cc(F)c1)N(CCNCCc1ccc(O)c2[nH]c(=O)ccc12)C1CCCCCC1 [Example 10, N-Cycloheptyl-3-(3,5-difluorophenethylamino)-N-(2-(2-(8-hydroxy-2-oxo-1,2-dihydroquinolin-5-yl)ethylamino)ethyl)propanamide bis(trifluoroacetate)]
- IC50 [1]: > 7940 nM
- β2 Int Act (Adrenergic β2): 0.85
- EC50 (Adrenergic β2): 20 nM
- IC50 [2]: 316 nM

Compound: O=C(CCNCCc1ccccc1)N(CCNCCc1ccc(O)c2[nH]c(=O)ccc12)C1CCCCCC1 [Example 7, N-Cycloheptyl-N-(2-(2-(8-hydroxy-2-oxo-1,2-dihydroquinolin-5-yl)ethylamino)ethyl)-3-(phenethylamino)propanamide bis(trifluoroacetate)]
- β2 Int Act (Adrenergic β2): 0.76
- EC50 (Adrenergic β2): 10 nM
- IC50 [3]: 316 nM
- IC50 [2]: 126 nM

Compound: O=C1COc2c(CCNCCN(C(=O)CCNCCc3cc(Cl)ccc3F)C3CCCCC3)ccc(O)c2N1 [Example 34, 3-(5-Chloro-2-fluorophenethylamino)-N-cyclohexyl-N-(2-(2-(5-hydroxy-3-oxo-3,4-dihydro-2H-benzo[b][1,4]oxazin-8-yl)ethylamino)ethyl)propanamide bis(trifluoroacetate)]
- IC50 [1]: 1000 nM
- β2 Int Act (Adrenergic β2): 0.9
- EC50 (Adrenergic β2): 1.58 nM
- IC50 [2]: 63.1 nM

Other lines, results leading:

- IC50 [1]: > 10000 nM
- β2 Int Act (Adrenergic β2): 0.85
- EC50 (Adrenergic β2): 20 nM
- IC50 [2]: 316 nM
Compound: O=C(CCNCCc1ccc(F)c(F)c1)N(CCNCCc1ccc(O)c2[nH]c(=O)ccc12)C1CCCCC1 [Example 16, N-Cyclohexyl-3-(3,4-difluorophenethylamino)-N-(2-(2-(8-hydroxy-2-oxo-1,2-dihydroquinolin-5-yl)ethylamino)ethyl)propanamide bis(trifluoroacetate)]

- β2 Int Act (Adrenergic β2): 0.87
- EC50 (Adrenergic β2): 10 nM
- IC50 [3]: 1260 nM
- IC50 [2]: 200 nM
Compound: O=C(CCNCCc1cccc(F)c1)N(CCNCCc1ccc(O)c2[nH]c(=O)ccc12)C1CCCCC1 [Example 19, N-Cyclohexyl-3-(3-fluorophenethylamino)-N-(2-(2-(8-hydroxy-2-oxo-1,2-dihydroquinolin-5-yl)ethylamino)ethyl)propanamide]
